From US8569384B2, “Antimicrobial compositions” (3M Innovative Properties Company, priority 2006, dated 2013)
Counter-ions that a name gives are not always drawn.

Test system: E. faecalis; ATCC #10741
Test: Direct Inoculation Filter Assay (residual efficacy on filter paper)
Type: cell-based, Enterococcus faecalis
Details: 2.0% ester with 4.0% cetyl alcohol and CHG in dried waxy coatings (Table 3)
Description: Direct Innoculation Filter Assay
This is an in vitro assay using filter paper to compare the residual efficacy of different surgical skin prep formulations.
Phosphate Buffered Water solution (PBW) was made by making a 0.25M stock solution by putting 34 grams KH2PO4 into 500 mL of DI water, adjusting the pH to 7.2 with 10N NaOH, and adding enough DI water to make 1 liter. The solution was filtered, sterilized, dispensed into a 1 liter sterile bottle, and stored under refrigeration. Butterfield's PBW was made by adding 1.25 mL of the stock solution to 900 mL of DI water and adding neutralizers, stirring, heating to dissolve the components, and diluting to 1 liter with DI water. The solution was mixed well, dispensed into two 500-mL bottles. The bottles containing the solution were autoclaved for 25 minutes at 121 degree C. The contents were carefully swirled after removing the bottles from the autoclave.
A Standard Sampling Solution (SSS) was prepared which contained: 0.4 grams KH2PO4, 10.1 grams Na2HPO4, 1.0 gram TRITON X-100 surfactant, 3.0 grams lecithin, 30.0 grams TWEEN 80, and deionized water to bring the total volume to 1 liter. […]
Onto each filter disc was pipetted 25 μL of each Example preparation or control. […] After 48 hours, colonies were counted and recorded.
The CFU/mL was determined by multiplying CFU count by dilution rate. The CFU/sample was calculated by multiplying the CFU/mL by 20, the amount of the SSS dilution. The log10 of the CFU/sample was calculated. […]

SMILES | Effect of emollient ester on bactericidal activity of the CHG
CCCCOC(=O)CC(O)(CC(=O)OCCCC)C(=O)OCCCC [tributyl citrate, Tributyl citrate] | significantly enhanced the bactericidal activity of the CHG
CC(C)OC(=O)CCCCC(=O)OC(C)C [diisopropyl adipate, Diisopropyl adipate] | significantly enhanced the bactericidal activity of the CHG
CCCCCCCCCCCCCCCC(=O)OC(C)C [isopropyl palmitate, Isopropyl palmitate] | did not enhance the activity of the CHG
